In test [1] the test system is Acinetobacter baumannii ATCC17961. Description: Antimicrobial susceptibility testing: 90% growth inhibitory concentration (IC90) determination, Iso-Sensitest broth. Format: cell-based. The settings on record: Acinetobacter baumannii, ATCC17961, 16 h, read-out: ATCC17961 IC90. How it is done: Antimicrobial Susceptibility Testing:
90% Growth Inhibitory Concentration (IC90) Determination
The in vitro antimicrobial activity of the compounds was determined according to the following procedure:
The assay used a 10-points Iso-Sensitest broth medium to measure quantitatively the in vitro activity of the compounds against Acinetobacter baumannii ATCC17978 and Acinetobacter baumannii ATCC17961.
Stock compounds in DMSO were serially twofold diluted (e.g. range from 50 to 0.097 μM final concentration) in 384 wells microtiter plates and inoculated with 49 μl the bacterial suspension in Iso-Sensitest medium to have a final cell concentration of 5×10^(5) CFU/ml in a final volume/well of 50 ul/well. Microtiter plates were incubated at 35±2° C.
Bacterial cell growth was determined with the measurement of optical density at λ=600 nm each 20 minutes over a time course of 16 h. Growth inhibition was calculated during the logarithmic growth of the bacterial cells with determination of the concentration inhibiting 50% (IC50) and 90% (IC90) of the growth.
Table 1 provides the 90% growth inhibitory concentrations (IC90) in micromoles per liter of the compounds of present invention obtained against the strain Acinetobacter baumannii ATCC17978 and Acinetobacter baumannii ATCC17961.

In test [2] the test system is Acinetobacter baumannii ATCC17978. The test is described as above. Format: cell-based. Summed up:
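A. baumannii ATCC17978 grown in Iso-Sensitest broth across 10 compound concentrations at 35±2 °C.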

[3] abbreviates: 90% growth inhibitory concentration, Acinetobacter baumannii ATCC17961, Iso-Sensitest broth, OD 600 nm over 16 h.
The mark [4] stands for this setting: Acinetobacter baumannii, ATCC17978, 16 h, read-out: ATCC17978 IC90, 90% growth inhibitory concentration, Acinetobacter baumannii ATCC17978, Iso-Sensitest broth, OD 600 nm over 16 h.
Where [5] appears, read: 90% growth inhibitory concentration, Acinetobacter baumannii ATCC17978, Iso-Sensitest broth, OD 600 nm over 16 h, read-out: ATCC17978 IC90.

The results in this text go back to US20230011869A1 (Hoffmann-La Roche Inc., priority 2018, published 2023).

Structures can show the parent of a compound that is named as a salt. Where two headings read alike, the source gives them in different places.

Take `Cc1cc(Nc2nccn3c(-c4ccc(OCC#N)c(F)c4Cl)cnc23)ccc1C(=O)N1CCN(C(=O)[C@@H]2CCNC[C@@H]2O)CC1` (relative stereo) [Example 223, 2-[3-chloro-2-fluoro-4-[8-[4-[4-[(3R,4R)-3-hydroxypiperidine-4-carbonyl]piperazine-1-carbonyl]-3-methyl-anilino]imidazo[1,2-a]pyrazin-3-yl]phenoxy] acetonitrile formate]: the IC90 in test [1] (setting [3]) was found to be 47 nM.

For the compound `Cc1cc(Nc2nccn3c(-c4ccc(OCC#N)c(F)c4F)cnc23)ccc1C(=O)N1CCN(C(=O)[C@@H]2C[C@@](C)(O)CN2)CC1` [Example 231, 2-[2,3-difluoro-4-[8-[4-[4-[(2S,4R)-4-hydroxy-4-methyl-pyrrolidine-2-carbonyl]piperazine-1-carbonyl]-3-methyl-anilino]imidazo[1,2-a]pyrazin-3-yl]phenoxy] acetonitrile formate], the IC90 in test [1] (setting [3]) was determined as 53 nM.

For `CCc1cc(Nc2nccn3c(-c4ccc(OC)c(F)c4F)cnc23)ccc1C(=O)N1CCN(CCO[C@@H]2O[C@H](CO)[C@H](O)[C@H](O)[C@H]2O)CC1` [Example 580, (4-((3-(2,3-difluoro-4-methoxyphenyl)imidazo[1,2-a]pyrazin-8-yl)amino)-2-ethylphenyl)(4-(2-(((2R,3R,4S,5R,6R)-3,4,5-trihydroxy-6-(hydroxymethyl)tetrahydro-2H-pyran-2-yl)oxy)ethyl)piperazin-1-yl)methanone], the IC90 in test [1] (setting [3]) came out at 601 nM.

`Cc1cc(Nc2nccn3c(-c4ccc(OC(F)F)cc4)cnc23)ccc1C(=O)N1CCN(C(=O)C2CCNCC2)CC1` [Example 173, [4-[[3-[4-(difluoromethoxy)phenyl]imidazo[1,2-a]pyrazin-8-yl]amino]-2-methyl-phenyl]-[4-(piperidine-4-carbonyl)piperazin-1-yl]methanone hydrochloride]: in test [1] (setting [3]), the IC90 came out at 35 nM.

With `COc1ccc(-c2cnc3c(Nc4ccc(C(=O)N5CCN(C(=O)[C@@H]6C[C@@H](O)CN6)CC5)c(C)c4F)nccn23)c(F)c1F` [Example 576, (4-(4-((3-(2,3-difluoro-4-methoxyphenyl)imidazo[1,2-a]pyrazin-8-yl)amino)-3-fluoro-2-methylbenzoyl)piperazin-1-yl)((2S,4R)-4-hydroxypyrrolidin-2-yl)methanone dihydrochloride], the IC90 in test [1] (setting [3]) was found to be 236 nM.

For the compound `CCc1cc(Nc2nccn3c(-c4ccc(OC(F)F)c(F)c4F)cnc23)ccc1C(=O)N1CCC(N)CC1` [Example 593, (4-aminopiperidin-1-yl)(4-((3-(4-(difluoromethoxy)-2,3-difluorophenyl)imidazo[1,2-a]pyrazin-8-yl)amino)-2-ethylphenyl)methanone formate], the IC90 in test [1] is 196 nM.

`COc1ccc(-c2cnc3c(Nc4ccc(C(=O)N5CCN(C(=O)[C@@H]6C[C@@](C)(O)CN6)CC5)c(C)c4)nccn23)cc1F` [Example 463, [4-[[3-(3-fluoro-4-methoxyphenyl)imidazo[1,2-a]pyrazin-8-yl]amino]-2-methylphenyl]-[4-[(2S,4R)-4-hydroxy-4-methylpyrrolidine-2-carbonyl]piperazin-1-yl]methanone; formic acid]: the IC90 in test [1] was 132 nM.

For `COc1ccc(-c2cnc3c(Nc4ccc(C(=O)N5CCC(C(=O)NCC(O)CN6CCOC(C)C6)CC5)c(C)c4)nccn23)c(F)c1F` (centres unmarked) [Example 571, 1-(4-((3-(2,3-difluoro-4-methoxyphenyl)imidazo[1,2-a]pyrazin-8-yl)amino)-2-methylbenzoyl)-N-(2-hydroxy-3-(2-methylmorpholino)propyl) piperidine-4-carboxamide], the IC90 in test [1] (setting [3]) stood at 265 nM.

For the compound `Cc1cc(Nc2nccn3c(-c4ccc(OC(F)F)cc4)cnc23)ccc1C(=O)N1CCN(CC(=O)N(C)C)CC1` [Example 372, 2-[4-[4-[[3-[4-(difluoromethoxy)phenyl]imi-dazo[1,2-a]pyrazin-8-yl]amino]-2-methylbenzoyl]piperazin-1-yl]-N,N-dimethylacetamide], in test [2] (setting [4]), the IC90 was 1200 nM.

With `CNCCNC(=O)C1CCN(C(=O)c2ccc(Nc3nccn4c(-c5ccc(OC)c(Cl)c5)cnc34)cc2C)CC1` [Example 112, 1-(4-((3-(3-chloro-4-methoxyphenyl)imidazo[1,2-a]pyrazin-8-yl)amino)-2-methylbenzoyl)-N-(2-(methylamino)ethyl)piperidine-4-carboxamide hydrochloride], the IC90 in test [2] (setting [5]) came out at 180 nM.

As to `COc1ccc(-c2cnc3c(Nc4ccc(C(=O)N5CCC(N6CCC(O)CC6)CC5)c(C)c4)nccn23)cc1F` [Example 401, [4-[[3-(3-fluoro-4-methoxyphenyl)imidazo[1,2-a]pyrazin-8-yl]amino]-2-methylphenyl]-[4-(4-hydroxypiperidin-1-yl)piperidin-1-yl]methanone], the IC90 in test [2] (setting [5]) worked out at 400 nM.

With `Cc1cc(Nc2nccn3c(-c4ccc(OC(F)F)cc4)cnc23)ccc1C(=O)N1CCN(C(=O)CCNC(=N)N)CC1` [Example 225, 1-(3-(4-(4-((3-(4-(difluoromethoxy)phenyl)imidazo[1,2-a]pyrazin-8-yl)amino)-2-methylbenzoyl)piperazin-1-yl)-3-oxopropyl)guanidine], the IC90 in test [2] (setting [5]) was 260 nM.

With `CN[C@H](C)C(=O)N1CCN(C(=O)c2ccc(Nc3nccn4c(-c5ccc(OC(F)F)cc5)cnc34)cc2C)CC1` [Example 334, (2R)-1-[4-[4-[[3-[4-(difluoromethoxy)phenyl]imi-dazo[1,2-a]pyrazin-8-yl]amino]-2-methylbenzoyl]piperazin-1-yl]-2-(methylamino)propan-1-one; hydrochloride], the IC90 in test [2] (setting [4]) turned out to be 430 nM.

On to `Cc1cc(Nc2nccn3c(-c4ccc(OCC#N)c(F)c4Cl)cnc23)ccc1C(=O)N1CCN(C(=O)N[C@H](C)CN)CC1` [Example 160, N-[(1R)-2-amino-1-methyl-ethyl]-4-[4-[[3-[2-chloro-4-(cyanomethoxy)-3-fluoro-phenyl]imidazo[1,2-a]pyrazin-8-yl]amino]-2-methyl-benzoyl]piperazine-1-carboxamide formate], for which the IC90 in test [2] (setting [5]) is 100 nM.

For `Cc1cnn(CC2CCN(C(=O)c3ccc(Nc4nccn5c(-c6ccc(OC(F)F)cc6)cnc45)cc3C)CC2)c1` [Example 380, [4-[[3-[4-(difluoromethoxy)phenyl]imi-dazo[1,2-a]pyrazin-8-yl]amino]-2-methylphenyl]-[4-[(4-methylpyrazol-1-yl)methyl]piperidin-1-yl]methanone], the IC90 in test [2] (setting [4]) is 2800 nM.

`COc1ccc(-c2cnc3c(Nc4ccc(C(=O)N5CCCC(CN(C)C)C5)c(C)c4)nccn23)cc1F` (centres unmarked) [Example 252, [3-[(dimethylamino)methyl]pi-peridin-1-yl]-[4-[[3-(3-fluoro-4-methoxyphenyl)imidazo[1,2-a]pyrazin-8-yl]amino]-2-methylphenyl]methanone]: the IC90 in test [2] (setting [5]) worked out at 2000 nM.

With `COc1ccc(-c2cnc3c(Nc4ccc(C(=O)N5CCN(C(=O)[C@H]6CCNC6)CC5)c(C)c4)nccn23)c(F)c1F` [Example 460, [4-[[3-(2,3-difluoro-4-methoxyphenyl)imidazo[1,2-a]pyrazin-8-yl]amino]-2-methylphenyl]-[4-[(3S)-pyrrolidine-3-carbonyl]piperazin-1-yl]methanone; hydrochloride], the IC90 in test [2] (setting [4]) amounted to 83 nM.
